± gives the standard deviation of the averaged measurements.
How the values were obtained:
[1] = compound: COc1cc([C@@H]2c3cc4c(cc3[C@@H](O[C@@H]3O[C@@H]5CO[C@@H](C)O[C@H]5[C@H](O)[C@H]3O)[C@H]3COC(=O)[C@H]23)OCO4)cc(OC)c1O [ETOPOSIDE]; assay: surviving fraction relative to DMSO-only wells; higher = less growth inhibition; details: exposure time: 5 days
Outline: (§1)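 Log-phase tumour cell lines, 250–500 cells per well in 384-well plates, received inhibitors at 0.5, 1, 5, 10, 50, 100, 500 and 1000 nM continuously for five days, starting 24 hours after seeding. Viability was quantified with CellTiter-Glo luminescence and normalised to the median of DMSO-only wells to give surviving fraction. Three screens were run per line, and a line stayed in only with replicate Pearson r >0.7 and median Z' >0.3.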

[2] = compound: O=C(NOCC1CC1)c1ccc(F)c(F)c1Nc1ccc(I)cc1Cl; assay: as above; details: exposure time: 5 days
Outline: as §1

Row | Test System | surviving fraction ([1]; 0.5 nM) | surviving fraction ([1]; 1 nM) | surviving fraction ([1]; 5 nM) | surviving fraction ([1]; 10 nM) | surviving fraction ([1]; 50 nM) | surviving fraction ([1]; 100 nM) | surviving fraction ([1]; 500 nM) | surviving fraction ([1]; 1000 nM) | surviving fraction ([2]; 0.5 nM) | surviving fraction ([2]; 1 nM) | surviving fraction ([2]; 5 nM) | surviving fraction ([2]; 10 nM) | surviving fraction ([2]; 50 nM) | surviving fraction ([2]; 100 nM) | surviving fraction ([2]; 500 nM) | surviving fraction ([2]; 1000 nM)
1 | C33A CERVIX | 0.794 ± 0.11 | 0.967 ± 0.064 | 0.918 ± 0.016 | 1.05 ± 0.071 | 0.923 ± 0.045 | 0.726 ± 0.024 | 0.251 ± 0.027 | 0.155 ± 0.01 | 0.68 ± 0.058 | 0.7503 ± 0.0031 | 0.868 ± 0.12 | 0.841 ± 0.071 | 0.736 ± 0.085 | 0.686 ± 0.047 | 0.477 ± 0.066 | 0.461 ± 0.032
2 | CAL72 BONE | 1.05 ± 0.026 | 1.05 ± 0.037 | 1.06 ± 0.048 | 1.05 ± 0.05 | 1.07 ± 0.051 | 1.07 ± 0.039 | 0.684 ± 0.029 | 0.358 ± 0.03 | 1.045 ± 0.0036 | 1.065 ± 0.0074 | 1.07 ± 0.012 | 1.09 ± 0.041 | 1.051 ± 0.0061 | 1.085 ± 0.0095 | 1.07 ± 0.021 | 1.056 ± 0.0038
3 | G292 BONE | 0.964 ± 0.035 | 0.976 ± 0.041 | 1 ± 0.087 | 0.978 ± 0.06 | 0.942 ± 0.02 | 0.796 ± 0.014 | 0.437 ± 0.019 | 0.352 ± 0.012 | 0.986 ± 0.059 | 0.942 ± 0.064 | 0.985 ± 0.052 | 0.986 ± 0.035 | 0.967 ± 0.041 | 0.959 ± 0.058 | 0.897 ± 0.047 | 0.924 ± 0.0059
4 | HUO3N1 BONE | 0.956 ± 0.017 | 0.936 ± 0.05 | 0.982 ± 0.06 | 1.01 ± 0.042 | 1.01 ± 0.019 | 0.96 ± 0.057 | 0.519 ± 0.01 | 0.376 ± 0.012 | 1.04 ± 0.051 | 1.01 ± 0.056 | 1.05 ± 0.03 | 1.04 ± 0.029 | 1.03 ± 0.037 | 1.01 ± 0.011 | 0.935 ± 0.017 | 1 ± 0.029
5 | LNCAP PROSTATE | 0.86 ± 0.18 | 0.951 ± 0.078 | 0.868 ± 0.13 | 0.94 ± 0.058 | 0.9023 ± 0.0057 | 0.77 ± 0.051 | 0.438 ± 0.046 | 0.301 ± 0.025 | 0.795 ± 0.11 | 0.855 ± 0.081 | 0.828 ± 0.11 | 0.99 ± 0.11 | 0.854 ± 0.17 | 0.921 ± 0.094 | 0.945 ± 0.024 | 0.884 ± 0.18
6 | SCC003 HEADNECK | 1.04 ± 0.092 | 1.05 ± 0.13 | 1.11 ± 0.069 | 1.07 ± 0.051 | 1.1 ± 0.063 | 1.08 ± 0.068 | 0.849 ± 0.15 | 0.604 ± 0.041 | 0.843 ± 0.1 | 0.826 ± 0.05 | 0.942 ± 0.11 | 0.907 ± 0.086 | 0.917 ± 0.079 | 0.924 ± 0.056 | 0.689 ± 0.037 | 0.648 ± 0.033
